The results in this text go back to US20130310379A1, “MODULATORS OF METHYL MODIFYING ENZYMES, COMPOSITIONS AND USES THEREOF” (CONSTELLATION PHARMACEUTICALS, priority 2010, published 2013).

In general, IC50 refers to the concentration at which inhibition is half-maximal.

This test deals with EZH2 (Homo sapiens, UniProt Q15910). Briefly: EZH2 assay: rPRC2 with biotinylated oligonucleosome substrates and 3H SAM, FlashPlate scintillation counting, IC50. Format: biochemical. Conditions: rPRC2, biotinylated oligonucleosome substrates, 3H SAM; read-out: EZH2 IC50. In short, it runs like this: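 IC50 from 4-parameter fit, baselines fixed at 0 and 100%. Compounds (top 80 uM, 2-fold series to 0.16 uM) pre-incubated 20 min with 2 nM EZH2-PRC2; 60-min methylation in pH 8.5 Tris with 0.2 uM 3H SAM, 0.2 uM oligonucleosomes, 3.6 uM H3K27me3 peptide.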
EZH2, sequence (Q15910 whole entry): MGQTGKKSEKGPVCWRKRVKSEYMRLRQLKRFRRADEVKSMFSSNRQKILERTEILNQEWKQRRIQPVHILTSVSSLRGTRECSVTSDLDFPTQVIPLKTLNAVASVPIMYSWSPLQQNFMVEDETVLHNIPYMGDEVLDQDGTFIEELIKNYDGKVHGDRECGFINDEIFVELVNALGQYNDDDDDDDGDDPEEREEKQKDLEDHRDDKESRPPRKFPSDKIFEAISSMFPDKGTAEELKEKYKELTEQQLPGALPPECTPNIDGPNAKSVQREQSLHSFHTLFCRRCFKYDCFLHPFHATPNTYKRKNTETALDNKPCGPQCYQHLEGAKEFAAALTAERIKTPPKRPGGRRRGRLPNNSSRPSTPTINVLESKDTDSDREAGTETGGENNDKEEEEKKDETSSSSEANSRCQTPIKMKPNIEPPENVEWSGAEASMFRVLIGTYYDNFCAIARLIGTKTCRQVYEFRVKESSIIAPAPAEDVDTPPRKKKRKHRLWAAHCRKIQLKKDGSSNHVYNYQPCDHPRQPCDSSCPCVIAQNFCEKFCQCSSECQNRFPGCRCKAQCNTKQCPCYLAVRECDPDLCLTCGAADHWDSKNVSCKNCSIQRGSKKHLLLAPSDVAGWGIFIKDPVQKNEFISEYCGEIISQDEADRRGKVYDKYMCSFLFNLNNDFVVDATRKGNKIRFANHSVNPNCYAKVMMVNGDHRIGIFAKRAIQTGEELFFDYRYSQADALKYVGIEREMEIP
EZH2, sequence (O75530 whole entry partner): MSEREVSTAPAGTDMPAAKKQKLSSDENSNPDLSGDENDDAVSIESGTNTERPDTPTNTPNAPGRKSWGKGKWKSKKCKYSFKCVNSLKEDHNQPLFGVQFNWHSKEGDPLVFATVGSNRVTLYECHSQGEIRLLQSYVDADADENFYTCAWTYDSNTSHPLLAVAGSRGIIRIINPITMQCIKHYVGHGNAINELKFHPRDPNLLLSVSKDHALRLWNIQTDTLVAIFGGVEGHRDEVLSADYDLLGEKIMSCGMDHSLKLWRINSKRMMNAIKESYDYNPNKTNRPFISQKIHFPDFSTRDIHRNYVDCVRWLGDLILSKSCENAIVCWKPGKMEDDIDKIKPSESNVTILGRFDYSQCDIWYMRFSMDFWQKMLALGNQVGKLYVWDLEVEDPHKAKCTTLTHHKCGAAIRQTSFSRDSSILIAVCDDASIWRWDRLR
EZH2, sequence (Q15022 whole entry partner): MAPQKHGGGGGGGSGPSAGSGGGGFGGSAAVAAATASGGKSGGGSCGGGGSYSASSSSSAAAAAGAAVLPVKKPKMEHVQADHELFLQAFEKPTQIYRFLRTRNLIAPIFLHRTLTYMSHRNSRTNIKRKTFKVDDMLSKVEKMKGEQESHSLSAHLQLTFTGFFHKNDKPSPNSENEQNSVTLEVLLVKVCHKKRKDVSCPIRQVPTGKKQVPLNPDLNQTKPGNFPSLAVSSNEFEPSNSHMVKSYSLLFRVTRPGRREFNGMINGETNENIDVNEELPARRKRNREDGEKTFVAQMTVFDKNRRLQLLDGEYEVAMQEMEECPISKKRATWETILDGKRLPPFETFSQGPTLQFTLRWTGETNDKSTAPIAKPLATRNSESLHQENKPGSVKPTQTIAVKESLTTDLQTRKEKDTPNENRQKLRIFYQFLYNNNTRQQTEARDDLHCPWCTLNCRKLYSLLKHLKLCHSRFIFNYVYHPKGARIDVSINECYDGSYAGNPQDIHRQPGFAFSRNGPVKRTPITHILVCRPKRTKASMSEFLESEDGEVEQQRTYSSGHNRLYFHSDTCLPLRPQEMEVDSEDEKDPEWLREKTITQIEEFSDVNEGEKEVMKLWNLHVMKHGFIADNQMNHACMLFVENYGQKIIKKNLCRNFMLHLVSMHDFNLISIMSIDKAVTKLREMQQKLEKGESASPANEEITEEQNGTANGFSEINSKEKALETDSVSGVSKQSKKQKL
In the case of `CC1(C)CC(NC(=O)Nc2ccc(C(C)(C)C)cc2Br)CC(C)(C)N1` [Compound I-143], the IC50 was > 80 µM. The same measure for `CC1(C)CC(NC(=O)c2ccc(Oc3ccccc3)c(Br)c2)CC(C)(C)N1` [Compound I-144]: 5 to 20 µM; for `CC1(C)CC(NC(=O)c2ccc(SC3CCCCC3)cc2)CC(C)(C)N1` [Compound I-145]: 20 to 80 µM.

In the case of `CC1(C)CC(NC(=O)c2ccc(OC3CCCCC3)cc2)CC(C)(C)N1` [Compound I-147], the 50% inhibitory concentration (IC50) lay in the range of 20 to 80 µM. The same measure for `CC1(C)CC(NC(=O)c2ccc(Oc3ccccc3)c(F)c2)CC(C)(C)N1` [Compound I-148]: 5 to 20 µM; for `CC1(C)CC(NC(=O)c2ccc(Oc3ccccc3Cc3ccccc3)cc2)CC(C)(C)N1` [Compound I-149]: 5 to 20 µM. As for `CC1(C)CC(NC(=O)c2ccc(Oc3ccccc3C3CCCCC3)cc2)CC(C)(C)N1` [Compound I-150], the figure is 5 to 20 µM. For the compound `CC1(C)CC(NC(=O)c2ccc(Oc3ccccc3C(C)(C)C)cc2)CC(C)(C)N1` [Compound I-151], the IC50 was in the range of 5 to 20 µM. As for `CC1(C)CC(NC(=O)c2ccc(Oc3ccccc3OCc3ccccc3)cc2)CC(C)(C)N1` [Compound I-152], the figure is < 5 µM. As for `CC1(C)CC(NC(=O)c2ccc(COc3cccc(-c4ccc(NC(=O)C5CC5)nc4)c3)cc2)CC(C)(C)N1` [Compound I-153], the figure is 20 to 80 µM. As for `CC1(C)CC(NC(=O)c2ccc(COc3cccc(-c4ccc(N)cc4)c3)cc2)CC(C)(C)N1` [Compound I-155], the figure is 20 to 80 µM; as for `Cc1ccc(Oc2ccc(C(=O)NC3CC(C)(C)NC(C)(C)C3)cc2)c(C#N)c1` [Compound I-156], > 80 µM; as for `CC1(C)CC(NC(=O)c2ccc(Oc3ccc(F)cc3C#N)cc2)CC(C)(C)N1` [Compound I-157], 20 to 80 µM.

`Cc1ccc(C#N)c(Oc2ccc(C(=O)NC3CC(C)(C)NC(C)(C)C3)cc2)c1` [Compound I-158]: the half-inhibitory concentration (IC50) fell in the range of 20 to 80 µM. As for `CC1(C)CC(NC(=O)c2ccc(Oc3c(F)cccc3C#N)cc2)CC(C)(C)N1` [Compound I-159], the 50% inhibitory concentration (IC50) is 20 to 80 µM. As for `CC1(C)CC(NC(=O)c2ccc(C(=O)Nc3ccccc3)cc2)CC(C)(C)N1` [Compound I-160], the figure is > 80 µM; as for `CC1(C)CC(NC(=O)c2ccc(C(=O)Nc3cccc(Br)c3)cc2)CC(C)(C)N1` [Compound I-161], > 80 µM. As for `CC1(C)CC(NC(=O)c2ccc(NC(=O)c3cccc(Br)c3)cc2)CC(C)(C)N1` [Compound I-162], the figure is 20 to 80 µM; as for `CC1(C)CC(NC(=O)c2ccc(COc3cccc(N4CCOCC4)c3)cc2)CC(C)(C)N1` [Compound I-164], > 80 µM; as for `CC1(C)CC(NC(=O)c2ccc(COc3cccc(N4CCNCC4)c3)cc2)CC(C)(C)N1` [Compound I-165], > 80 µM. As to `CC1(C)CC(NC(=O)c2ccc(COc3cccc(N4CCCNCC4)c3)cc2)CC(C)(C)N1` [Compound I-166], the IC50 was > 80 µM. Take `CC1(C)CC(NC(=O)c2ccc(Oc3cccc(OCc4ccccc4)c3)cc2)CC(C)(C)N1` [Compound I-168]: the IC50 lay within 20 to 80 µM. As for `CC1(C)CC(NC(=O)c2ccc(Oc3cccc(CN4CCCCC4)c3)cc2)CC(C)(C)N1` [Compound I-169], the figure is 5 to 20 µM; as for `CCC(C)c1ccccc1Oc1ccc(C(=O)NC2CC(C)(C)NC(C)(C)C2)cc1` (stereo not shown) [Compound I-170], 5 to 20 µM. The same measure for `CC1(C)CC(NC(=O)c2ccc(Oc3ccc4ncccc4c3)cc2)CC(C)(C)N1` [Compound I-172]: > 80 µM; for `CC1(C)CC(NC(=O)c2ccc(Oc3ccccc3C#N)cc2Cl)CC(C)(C)N1` [Compound I-174]: 20 to 80 µM. Take `CC1(C)CC(NC(=O)c2ccc(Oc3ccccc3)cc2Cl)CC(C)(C)N1` [Compound I-175]: the concentration for half-maximal inhibition (IC50) was > 80 µM. As to `Cc1cccc(C#N)c1Oc1ccc(C(=O)NC2CC(C)(C)NC(C)(C)C2)cc1` [Compound I-176], the IC50 fell in the range of 20 to 80 µM.

With `COc1ccc(Oc2ccc(C(=O)NC3CC(C)(C)NC(C)(C)C3)cc2)c(C#N)c1` [Compound I-177], the half-maximal inhibitory concentration (IC50) was > 80 µM. With `N#Cc1ccccc1Oc1ccc(C(=O)NC2CCNCC2)cc1Cl` [Compound I-178], the IC50 was > 80 µM. The same measure for `CC1(C)CC(NC(=O)c2ccc(Oc3ccccc3CO)cc2)CC(C)(C)N1` [Compound I-179]: 20 to 80 µM; for `CC1(C)CC(NC(=O)c2ccc(Oc3cccc(Br)c3)cc2)CC(C)(C)N1` [Compound I-180]: 20 to 80 µM. For the compound `CC1(C)CC(NC(=O)c2ccc(Oc3cccc4c3CCCC4)cc2)CC(C)(C)N1` [Compound I-181], the IC50 is 5 to 20 µM.

As to `CC1(C)CC(NC(=O)c2ccc(COc3cccc4cnccc34)cc2)CC(C)(C)N1` [Compound I-182], the IC50 is 5 to 20 µM. As for `C#Cc1cccc(OCc2ccc(C(=O)NC3CC(C)(C)NC(C)(C)C3)cc2)c1` [Compound I-184], the figure is < 5 µM; as for `CC1(C)CC(NC(=O)c2ccc3oc4c(C#N)cccc4c3c2)CC(C)(C)N1` [Compound I-187], 20 to 80 µM.

In the case of `CC1(C)CC(NC(=O)c2ccc(COc3cccc4c3CCCC4)cc2)CC(C)(C)N1` [Compound I-188], the IC50 was < 5 µM. The same measure for `CC1(C)CC(NC(=O)c2ccc(COc3cccc4cccnc34)cc2)CC(C)(C)N1` [Compound I-189]: 20 to 80 µM. Turning to `CC1(C)CC(NC(=O)c2ccc(COc3cccc4ncccc34)cc2)CC(C)(C)N1` [Compound I-190], the IC50 was in the range of 5 to 20 µM. Consider `COc1cc(Oc2ccccc2C#N)ccc1C(=O)NC1CC(C)(C)NC(C)(C)C1` [Compound I-191], for which the 50% inhibitory concentration (IC50) was > 80 µM. For the compound `CC1(C)CC(C(=O)Nc2ccc(Oc3ccccc3)cc2)CC(C)(C)N1` [Compound I-192], the IC50 is > 80 µM. The same measure for `CN1CCC(NC(=O)c2ccc(Oc3ccccc3C#N)c(Cl)c2)CC1` [Compound I-193]: > 80 µM; for `CC1(C)CC(NC(=O)c2ccc(Oc3ccccc3OCc3ccccc3)c(Cl)c2)CC(C)(C)N1` [Compound I-194]: < 5 µM.

For `CC1(C)CC(NC(=O)c2ccc(Oc3ccccc3C3CCCCC3)c(Cl)c2)CC(C)(C)N1` [Compound I-195], the IC50 fell in the range of 5 to 20 µM. For `CC1(C)CC(NC(=O)c2ccc(Oc3ccccc3C#N)c(N3CCOCC3)c2)CC(C)(C)N1` [Compound I-196], the IC50 was < 5 µM. The same measure for `CC1(C)CC(NC(=O)c2ccc(Oc3ccccc3C#N)c(-c3ccccc3)c2)CC(C)(C)N1` [Compound I-197]: < 5 µM. As for `CCCc1cc(C(=O)NC2CC(C)(C)NC(C)(C)C2)ccc1Oc1ccccc1C#N` [Compound I-198], the figure is < 5 µM. The same measure for `CC1(C)CC(NC(=O)c2ccc3cc(Oc4ccccc4C#N)ccc3c2)CC(C)(C)N1` [Compound I-200]: 20 to 80 µM; for `CC1(C)CC(NC(=O)c2ccc(Oc3ccccc3C#N)c(Cc3ccccc3)c2)CC(C)(C)N1` [Compound I-201]: < 5 µM; for `CC1(C)CC(NC(=O)c2ccc(Oc3ccccc3C#N)c(-c3cncnc3)c2)CC(C)(C)N1` [Compound I-202]: 5 to 20 µM. For the compound `CC1(C)CC(NC(=O)c2ccc(Oc3ccccc3)cc2F)CC(C)(C)N1` [Compound I-203], the IC50 was > 80 µM. As for `COc1cc(Oc2ccccc2)ccc1C(=O)NC1CC(C)(C)NC(C)(C)C1` [Compound I-204], the figure is > 80 µM.
